Reference: patent publication US6455540B1, “Methods of use of quinolone compounds against anaerobic pathogenic bacteria” (priority 1999, dated 2002)
In brackets after ≈: the same amount, converted by molar mass.

How the values were obtained:
Test in all cases: Agar dilution MIC
Fusobacterium varium = assay type: cell-based; settings: Fusobacterium varium, 17 isolates
Bacteroides ureolyticus = assay type: cell-based; settings: 17 isolates
[1] = system: Peptostreptococcus magnus; assay type: cell-based; settings: Finegoldia magna, 13 isolates
[2] = system: Anaerobiospirillum succiniciproducens; assay type: cell-based; settings: 3 isolates
[3] = system: Prevotella melaninogenica; assay type: cell-based; settings: 12 isolates
Prevotella bivia = assay type: cell-based; settings: Prevotella bivia, 21 isolates
Fusobacterium russii = assay type: cell-based; settings: Fusobacterium russii
[4] = system: Peptostreptococcus prevotii; assay type: cell-based; settings: Anaerococcus prevotii, read-out: Minimal Inhibitory Concentration 50% (MIC50); 9 isolates
Clostridium dfficile = assay type: cell-based, Clostridium difficile; settings: Clostridium
Bacteroides tectum = assay type: cell-based; settings: 22 isolates
[5] = system: Fusobacterium spp group 1; assay type: cell-based; settings: Fusobacterium, 19 isolates
Prevotella intermedia = assay type: cell-based; settings: Prevotella intermedia, 11 isolates
Porphyromonas spp. = assay type: cell-based, Porphyromonas cangingivalis, cansulci, circumdentaria, levii; settings: 11 isolates
[6] = system: Fusobacterium spp. group 2; assay type: cell-based, Fusobacterium mortiferum, necrogenes, ulcerans; settings: Fusobacterium, 12 isolates
Porphyromonas macaccae = assay type: cell-based; settings: 13 isolates
[7] = system: Prevotella denticola/loeschii group; assay type: cell-based; settings: 6 isolates
[8] = system: Actinomyces odontolyticus; assay type: cell-based; settings: Schaalia odontolytica, 10 isolates
[9] = system: Prevotella heparinolytica; assay type: cell-based; settings: 16 isolates
[10] = system: Anaerobiospirillum thomasii; assay type: cell-based; settings: 13 isolates
Clostridium ramosum = assay type: cell-based; settings: Thomasclavelia ramosa, 10 isolates
[11] = system: Clostridium clostridioforme; assay type: cell-based; settings: Clostridium, 11 isolates
Veillonella spp. = assay type: cell-based; settings: Veillonella, 24 isolates
Actinomyces israelii = assay type: cell-based; settings: Actinomyces israelii, read-out: Minimal Inhibitory Concentration 50% (MIC50); 6 isolates
[12] = system: Peptostreptococcus micros; assay type: cell-based; settings: 12 isolates
Clostridium inocuum = assay type: cell-based, Clostridium innocuum; settings: Clostridium, 11 isolates
[13] = system: Prevotella buccae-oris group; assay type: cell-based; settings: 22 isolates
Bilophila wadsworthia = assay type: cell-based; settings: 16 isolates, agar supplemented with pyruvate
Porphyromonas canoris = assay type: cell-based; settings: 10 isolates
[14] = system: Peptostreptococcus asaccharolyticus; assay type: cell-based; settings: Peptoniphilus asaccharolyticus, 11 isolates
Bacteroides gracilis = assay type: cell-based, Bacteroides gracilis (Campylobacter gracilis); settings: 11 isolates
Porphyromonas gingivalis = assay type: cell-based; settings: 13 isolates
[15] = system: Porphyromonas asaccharolyticus; assay type: cell-based, Porphyromonas asaccharolytica; settings: Porphyromonas, 11 isolates
[16] = read-out: Minimal Inhibitory Concentration 50% (MIC50)
[17] = read-out: Minimal Inhibitory Concentration 90% (MIC90)
[18] = Porphyromonas, read-out: Minimal Inhibitory Concentration 50% (MIC50)
[19] = Porphyromonas, read-out: Minimal Inhibitory Concentration 90% (MIC90)

CC[C@H]1OC(=O)[C@H](C)[C@@H](O[C@H]2C[C@@](C)(OC)[C@@H](O)[C@H](C)O2)[C@H](C)[C@@H](O[C@@H]2O[C@H](C)C[C@H](N(C)C)[C@H]2O)[C@](C)(OC)C[C@@H](C)C(=O)[C@H](C)[C@@H](O)[C@]1(C)O [Clarithromycin]
MIC50 (Fusobacterium varium; [16]): > 32 µg/mL
MIC90 (Fusobacterium varium; [17]): > 32 µg/mL
Minimal Inhibitory Concentration Range (Bacteroides ureolyticus): 0.125 to 4 µg/mL
MIC90 (Bacteroides ureolyticus; Campylobacter ureolyticus, read-out: Minimal Inhibitory Concentration 90% (MIC90)): 2 µg/mL (≈ 2.67 µM)
MIC50 (Bacteroides ureolyticus; Campylobacter ureolyticus, read-out: Minimal Inhibitory Concentration 50% (MIC50)): 0.5 µg/mL (≈ 0.668 µM)
MIC50 [1, 16]: 2 µg/mL (≈ 2.67 µM)
MIC90 [1, 17]: > 32 µg/mL
Minimal Inhibitory Concentration Range [2]: 8 to 32 µg/mL
MIC50 ([2]; Anaerobiospirillum succiniciproducens, read-out: Minimal Inhibitory Concentration 50% (MIC50)): 32 µg/mL (≈ 42.8 µM)
Minimal Inhibitory Concentration Range [3]: 0.06 to 4 µg/mL
MIC90 ([3]; Prevotella melaninogenica, read-out: Minimal Inhibitory Concentration 90% (MIC90)): 1 µg/mL (≈ 1.34 µM)
MIC50 ([3]; Prevotella melaninogenica, read-out: Minimal Inhibitory Concentration 50% (MIC50)): 0.125 µg/mL (≈ 0.167 µM)
MIC90 (Prevotella bivia; [17]): 0.25 µg/mL (≈ 0.334 µM)
MIC50 (Prevotella bivia; [16]): 0.125 µg/mL (≈ 0.167 µM)
MIC50 (Fusobacterium russii; [16]): 4 µg/mL (≈ 5.35 µM)
MIC90 (Fusobacterium russii; [17]): > 32 µg/mL
MIC50 [4]: > 32 µg/mL
MIC50 (Clostridium dfficile; [16]): 0.5 µg/mL (≈ 0.668 µM)
MIC90 (Clostridium dfficile; read-out: Minimal Inhibitory Concentration 90% (MIC90), 14 isolates): > 32 µg/mL
Minimal Inhibitory Concentration Range (Bacteroides tectum): 0.125 µg/mL
MIC90 (Bacteroides tectum; Bacteroides pyogenes, read-out: Minimal Inhibitory Concentration 90% (MIC90)): 0.125 µg/mL (≈ 0.167 µM)
MIC50 (Bacteroides tectum; Bacteroides pyogenes, read-out: Minimal Inhibitory Concentration 50% (MIC50)): 0.125 µg/mL (≈ 0.167 µM)
MIC50 ([5]; GROUP1, read-out: Minimal Inhibitory Concentration 50% (MIC50)): 8 µg/mL (≈ 10.7 µM)
MIC90 ([5]; GROUP1, read-out: Minimal Inhibitory Concentration 90% (MIC90)): 32 µg/mL (≈ 42.8 µM)
MIC90 (Prevotella intermedia; [17]): 0.125 µg/mL (≈ 0.167 µM)
MIC50 (Prevotella intermedia; [16]): ≤ 0.015 µg/mL
Minimal Inhibitory Concentration Range (Porphyromonas spp.): 0.06 to 0.125 µg/mL
MIC50 (Porphyromonas spp.; [18]): 0.06 µg/mL (≈ 0.0802 µM)
MIC90 (Porphyromonas spp.; [19]): 0.125 µg/mL (≈ 0.167 µM)
MIC50 [6, 16]: > 32 µg/mL
MIC90 [6, 17]: > 32 µg/mL
Minimal Inhibitory Concentration Range (Porphyromonas macaccae): 0.06 to 0.125 µg/mL
MIC50 (Porphyromonas macaccae; [18]): 0.125 µg/mL (≈ 0.167 µM)
MIC90 (Porphyromonas macaccae; [19]): 0.125 µg/mL (≈ 0.167 µM)
Minimal Inhibitory Concentration Range [7]: 0.03 to 2 µg/mL
MIC50 ([7]; Prevotella denticola, read-out: Minimal Inhibitory Concentration 50% (MIC50)): 0.06 µg/mL (≈ 0.0802 µM)
MIC90 [8, 17]: ≤ 0.015 µg/mL
MIC50 [8, 16]: ≤ 0.015 µg/mL
Minimal Inhibitory Concentration Range [9]: 0.06 to 0.125 µg/mL
MIC90 ([9]; Prevotella heparinolytica, read-out: Minimal Inhibitory Concentration 90% (MIC90)): 0.125 µg/mL (≈ 0.167 µM)
MIC50 ([9]; Prevotella heparinolytica, read-out: Minimal Inhibitory Concentration 50% (MIC50)): 0.125 µg/mL (≈ 0.167 µM)
Minimal Inhibitory Concentration Range [10]: 2 to 32 µg/mL
MIC50 ([10]; Anaerobiospirillum thomasii, read-out: Minimal Inhibitory Concentration 50% (MIC50)): 4 µg/mL (≈ 5.35 µM)
MIC90 ([10]; Anaerobiospirillum thomasii, read-out: Minimal Inhibitory Concentration 90% (MIC90)): 16 µg/mL (≈ 21.4 µM)
MIC50 (Clostridium ramosum; [16]): 0.5 µg/mL (≈ 0.668 µM)
MIC90 (Clostridium ramosum; [17]): > 32 µg/mL
MIC90 [11, 17]: > 32 µg/mL
MIC50 [11, 16]: 4 µg/mL (≈ 5.35 µM)
MIC90 (Veillonella spp.; [17]): > 32 µg/mL
MIC50 (Veillonella spp.; [16]): 16 µg/mL (≈ 21.4 µM)
MIC50 (Actinomyces israelii): ≤ 0.015 µg/mL
Minimal Inhibitory Concentration Range [12]: 0.6 µg/mL
MIC50 ([12]; Parvimonas micra, read-out: Minimal Inhibitory Concentration 50% (MIC50)): 0.5 µg/mL (≈ 0.668 µM)
MIC90 ([12]; Parvimonas micra, read-out: Minimal Inhibitory Concentration 90% (MIC90)): 0.5 µg/mL (≈ 0.668 µM)
MIC90 (Clostridium inocuum; [17]): > 32 µg/mL
MIC50 (Clostridium inocuum; [16]): > 32 µg/mL
Minimal Inhibitory Concentration Range [13]: 0.06 to 1 µg/mL
MIC90 ([13]; Prevotella, read-out: Minimal Inhibitory Concentration 90% (MIC90)): 0.25 µg/mL (≈ 0.334 µM)
MIC50 ([13]; Prevotella, read-out: Minimal Inhibitory Concentration 50% (MIC50)): 0.125 µg/mL (≈ 0.167 µM)
Minimal Inhibitory Concentration Range (Bilophila wadsworthia): 4 to 32 µg/mL
MIC90 (Bilophila wadsworthia; Bilophila wadsworthia, read-out: Minimal Inhibitory Concentration 90% (MIC90)): 32 µg/mL (≈ 42.8 µM)
MIC50 (Bilophila wadsworthia; Bilophila wadsworthia, read-out: Minimal Inhibitory Concentration 50% (MIC50)): 16 µg/mL (≈ 21.4 µM)
Minimal Inhibitory Concentration Range (Porphyromonas canoris): 0.06 to 0.125 µg/mL
MIC50 (Porphyromonas canoris; Porphyromonas canoris, read-out: Minimal Inhibitory Concentration 50% (MIC50)): 0.06 µg/mL (≈ 0.0802 µM)
MIC90 (Porphyromonas canoris; Porphyromonas canoris, read-out: Minimal Inhibitory Concentration 90% (MIC90)): 0.125 µg/mL (≈ 0.167 µM)
MIC50 [14, 16]: 2 µg/mL (≈ 2.67 µM)
MIC90 [14, 17]: > 32 µg/mL
Minimal Inhibitory Concentration Range (Bacteroides gracilis): 0.25 to 2 µg/mL
MIC90 (Bacteroides gracilis; Campylobacter gracilis, read-out: Minimal Inhibitory Concentration 90% (MIC90)): 1 µg/mL (≈ 1.34 µM)
MIC50 (Bacteroides gracilis; Campylobacter gracilis, read-out: Minimal Inhibitory Concentration 50% (MIC50)): 1 µg/mL (≈ 1.34 µM)
Minimal Inhibitory Concentration Range (Porphyromonas gingivalis): 0.06 to 0.125 µg/mL
MIC50 (Porphyromonas gingivalis; Porphyromonas gingivalis, read-out: Minimal Inhibitory Concentration 50% (MIC50)): 0.06 µg/mL (≈ 0.0802 µM)
MIC90 (Porphyromonas gingivalis; Porphyromonas gingivalis, read-out: Minimal Inhibitory Concentration 90% (MIC90)): 0.125 µg/mL (≈ 0.167 µM)
MIC50 [15, 16]: 0.06 µg/mL (≈ 0.0802 µM)
MIC90 [15, 17]: > 32 µg/mL
